Test results as given in US10143681B2, “Factor XIa inhibitors” (MERCK SHARP & DOHME CORP., priority 2016, dated 2018).
pIC50: −log10 of the molar value.

Columns and labels:
human Factor XIa = human Factor XIa (Homo sapiens (Human), UniProt P03951); assay: Factor XIa Assay; type: biochemical; settings: human Factor XIa 0.04 nM, 30 min pre-incubation at 25° C., substrate GPR-AFC; read-out: FXIa IC50
Summary of the method: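 IC50 values were obtained from four-parameter log(inhibitor)-response fits of % inhibition, then converted to Ki using Cheng-Prusoff. GPR-AFC hydrolysis was read at 400/505 nm after 60 min at 25 °C.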

Human plasma kallikrein = Human plasma kallikrein (Homo sapiens (Human), UniProt P03952); assay: Kallikrein Assay; type: biochemical; settings: purified Human plasma kallikrein 0.5 nM, substrate Acetyl-K-P-R-AFC; read-out: P. KLK IC50
Human plasma kallikrein, sequence (P03952 391-638): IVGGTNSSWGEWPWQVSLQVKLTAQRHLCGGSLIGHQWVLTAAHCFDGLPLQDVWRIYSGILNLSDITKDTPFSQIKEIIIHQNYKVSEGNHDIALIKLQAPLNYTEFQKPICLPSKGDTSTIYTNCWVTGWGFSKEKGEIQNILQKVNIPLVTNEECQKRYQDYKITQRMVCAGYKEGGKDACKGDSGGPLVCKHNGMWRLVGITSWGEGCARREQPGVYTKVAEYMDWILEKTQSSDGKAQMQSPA
Human plasma kallikrein, sequence (P03952 20-390 partner): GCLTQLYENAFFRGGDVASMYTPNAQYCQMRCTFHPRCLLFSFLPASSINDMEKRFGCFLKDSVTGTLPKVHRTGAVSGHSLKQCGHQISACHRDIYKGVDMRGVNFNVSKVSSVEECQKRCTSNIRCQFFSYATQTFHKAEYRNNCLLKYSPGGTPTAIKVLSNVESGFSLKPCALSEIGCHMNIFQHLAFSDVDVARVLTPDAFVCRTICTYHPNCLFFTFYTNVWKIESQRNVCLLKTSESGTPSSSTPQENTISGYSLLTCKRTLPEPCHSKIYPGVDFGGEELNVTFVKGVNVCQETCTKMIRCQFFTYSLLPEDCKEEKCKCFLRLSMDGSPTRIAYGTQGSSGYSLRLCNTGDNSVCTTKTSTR
Experimental: The effectiveness of a compound of the present invention as an inhibitor of Kallikrein can be determined using a relevant purified serine protease, and an appropriate synthetic substrate. The rate of hydrolysis of the chromogenic or fluorogenic substrate by the relevant serine protease was measured both in the absence and presence of compounds of the present invention. Assays were conducted at room temperature or at 37° C. […] A decrease in the rate of fluorescence change in the presence of inhibitor is indicative of enzyme inhibition. Such methods are known to one skilled in the art. The results of this assay are expressed as the half-maximal inhibitory concentrations (IC50), or the inhibitory constant, Ki.
Kallikrein determinations were made in 50 mM HEPES buffer at pH 7.4 containing 150 mM NaCl, 5 mM CaCl2, and 0.1% PEG 8000 (polyethylene glycol; Fisher Scientific). Determinations were made using purified Human plasma kallikrein at a final concentration of 0.5 nM (Enzyme Research Laboratories) and the synthetic substrate, Acetyl-K-P-R-AFC (Sigma # C6608) at a concentration of […].
Times required to achieve equilibration between enzyme and inhibitor were determined in control experiments. The reactions were performed under linear progress curve conditions and fluorescence increase measured at 405 Ex/510 Em nm. […] IC50 was determined by inflection point from a four parameter logistic curve fit. Ki was calculated using the Cheng Prusoff equation, Ki=IC50/(1+([S]/Km)).

[1] = tested on: Human plasma (intrinsic coagulation cascade); assay: Activated Partial Thromboplastin Time (aPTT) Assay; settings: concentration that causes a 50% (1.5×) increase of clot time over vehicle
Summary of the method: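 Inhibitors spiked into pooled citrated normal-donor human plasma (aPTT 28-40 seconds), run on automated coagulation analyzer: ellagic acid activation of Factor XII, then clot time after recalcification. Reported as concentration giving 50% (1.5×) prolongation over vehicle clot time.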

human Factor XIa, sequence (P03951 388-625): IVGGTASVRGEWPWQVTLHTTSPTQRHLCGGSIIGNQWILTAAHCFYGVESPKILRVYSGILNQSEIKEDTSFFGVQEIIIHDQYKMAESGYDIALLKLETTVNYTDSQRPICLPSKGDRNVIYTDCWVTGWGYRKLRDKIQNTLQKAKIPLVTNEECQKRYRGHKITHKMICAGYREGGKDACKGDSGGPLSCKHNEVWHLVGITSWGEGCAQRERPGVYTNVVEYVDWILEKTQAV
human Factor XIa, sequence (P03951 19-387 partner): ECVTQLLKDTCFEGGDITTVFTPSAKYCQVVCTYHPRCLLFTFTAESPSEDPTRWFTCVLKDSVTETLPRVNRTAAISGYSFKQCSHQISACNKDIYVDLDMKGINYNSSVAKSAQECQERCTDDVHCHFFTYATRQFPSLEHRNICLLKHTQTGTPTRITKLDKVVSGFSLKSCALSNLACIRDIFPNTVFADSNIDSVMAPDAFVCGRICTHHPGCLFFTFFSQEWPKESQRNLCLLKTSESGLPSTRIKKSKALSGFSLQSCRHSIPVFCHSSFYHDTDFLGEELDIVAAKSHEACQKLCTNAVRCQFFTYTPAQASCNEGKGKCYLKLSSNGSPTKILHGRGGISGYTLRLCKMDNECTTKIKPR

SMILES | pIC50 (human Factor XIa) | pIC50 (Human plasma kallikrein) | aPTT (1.5x) [1] [µM]
C[C@]1(O)CC[C@@H](CC(C(=O)Nc2ccc(C(=O)O)cc2)c2ccc(-c3c(C(F)F)ccc(Cl)c3F)c[n+]2[O-])CC1 (single isomer, unassigned) [Example 45, 2-(1-((4-carboxyphenyl)amino)-3-((1s,4s)-4-hydroxy-4-methylcyclohexyl)-1-oxopropan-2-yl)-5-(3-chloro-6-(difluoromethyl)-2-fluorophenyl)pyridine 1-oxide] | 8.57 | 7.92 | 1.16
O=C(O)c1ccc(NC(=O)C(CC2CC(F)C2)c2ccc(-c3c(C(F)F)ccc(Cl)c3F)c[n+]2[O-])cc1 (single isomer, unassigned) [Example 81, 2-(1-((4-carboxyphenyl)amino)-3-(3-fluorocyclobutyl)-1-oxopropan-2-yl)-5-(3-chloro-6-(difluoromethyl)-2-fluorophenyl)pyridine-1-oxide] | 8.92 | 8.08 | 0.58
O=C(O)c1ccc(NC(=O)C(CC2CC2CF)c2ccc(-c3c(C(F)F)ccc(Cl)c3F)c[n+]2[O-])cc1 (single isomer, unassigned) [Example 94, 2-(1-((4-carboxyphenyl)amino)-3-(2-(fluoromethyl)cyclopropyl)-1-oxopropan-2-yl)-5-(3-chloro-6-(difluoromethyl)-2-fluorophenyl)pyridine 1-oxide] | 9.40 | 8.22 | 0.4
O=C(O)c1ccc(NC(=O)C(CC2CC2)c2ccc(-c3cc(Cl)ccc3C(F)(F)F)c[n+]2[O-])cc1 (single isomer, unassigned) [Example 25, (R)- or (S)-2-(1-((4-carboxyphenyl)amino)-3-cyclopropyl-1-oxopropan-2-yl)-5-(5-chloro-2-(trifluoromethyl)phenyl)pyridine 1-oxide] | 7.80 | 6.12 | 10.28
C[C@]1(O)CC[C@H](CC(C(=O)Nc2ccc(C(=O)O)cc2)c2ccc(-c3c(C(F)F)ccc(Cl)c3F)c[n+]2[O-])CC1 (single isomer, unassigned) [Example 47, 2-(1-((4-carboxyphenyl)amino)-3-((1r,4r)-4-hydroxy-4-methylcyclohexyl)-1-oxopropan-2-yl)-5-(3-chloro-6-(difluoromethyl)-2-fluorophenyl)pyridine 1-oxide] | 9.25 | 7.70 | 0.59
CC1CC(CC(C(=O)Nc2ccc(C(=O)O)cc2)c2ccc(-c3c(C(F)(F)F)ccc(Cl)c3F)c[n+]2[O-])C1 (single isomer, unassigned) [Example 74, 2-(1-((4-carboxyphenyl)amino)-3-(3-methylcyclobutyl)-1-oxopropan-2-yl)-5-(3-chloro-2-fluoro-6-(trifluoromethyl)phenyl) pyridine 1-oxide] | 8.89 | 7.72 | 2.77
O=C(O)c1ccc(NC(=O)C(C[C@H]2CC[C@H](O)CC2)c2ccc(-c3c(C(F)F)ccc(Cl)c3F)c[n+]2[O-])cc1 (single isomer, unassigned) [Example 37, (R)- or (S)-2-(1-((4-carboxyphenyl)amino)-3-((1r,4r)-4-hydroxycyclohexyl)-1-oxopropan-2-yl)-5-(3-chloro-6-(difluoromethyl)-2-fluorophenyl)pyridine 1-oxide] | 9.48 | 8.24 | 0.4
O=C(O)c1ccc(NC(=O)C(CC2CC2F)c2ccc(-c3c(C(F)F)ccc(Cl)c3F)c[n+]2[O-])cc1 (single isomer, unassigned) [Example 93, 2-(1-((4-carboxyphenyl)amino)-3-(2-fluorocyclopropyl)-1-oxopropan-2-yl)-5-(3-chloro-6-(difluoromethyl)-2-fluorophenyl)pyridine-1-oxide] | 8.48 | 7.55 | 0.8
N#CC1(CC(C(=O)Nc2ccc(C(=O)O)cc2)c2ccc(-c3c(C(F)F)ccc(Cl)c3F)c[n+]2[O-])CC1 (racemic) [Example 31, 2-(1-((4-carboxyphenyl)amino)-3-(1-cyanocyclopropyl)-1-oxopropan-2-yl)-5-(3-chloro-6-(difluoromethyl)-2-fluorophenyl)pyridine 1-oxide] | 8.52 | 7.51 | 0.88
O=C(O)c1ccc(NC(=O)C(CC2CC2CF)c2ccc(-c3c(C(F)F)ccc(Cl)c3F)c[n+]2[O-])cc1 (single isomer, unassigned) [Example 95, 2-(1-((4-carboxyphenyl)amino)-3-(2-(fluoromethyl)cyclopropyl)-1-oxopropan-2-yl)-5-(3-chloro-6-(difluoromethyl)-2-fluorophenyl)pyridine-1-oxide] | 9.40 | 8.02 | 0.43
CCOc1ccc(Cl)c(F)c1-c1ccc(C(CC2CC2)C(=O)Nc2ccc(C(=O)O)cc2)[n+]([O-])c1 (single isomer, unassigned) [Example 9, (R)- or (S)-4-({2-[5-(3-chloro-6-ethoxy-2-fluorophenyl)-1-oxidopyridin-2-yl]-3-cyclopropylpropanoyl}amino) benzoic acid] | 8.05 | 6.07 | 13
O=C(O)c1ccc(NC(=O)[C@H](CC2CC2)c2ccc(-c3c(OCC4CC4)ccc(Cl)c3F)c[n+]2[O-])cc1 [Example 13, (R)-4-[(2-{5-[3-chloro-6-(cyclopropylmethoxy)-2-fluorophenyl]-1-oxidopyridin-2-yl}-3-cyclopropylpropanoyl)amino] benzoic acid] | 8.16 | 6.01 | 11.1
O=C(O)c1ccc(NC(=O)C(CC2CCC2)c2ccc(-c3c(OC(F)F)ccc(Cl)c3F)c[n+]2[O-])cc1 (single isomer, unassigned) [Example 15, (R)- or (S)-4-[(2-{5-[3-chloro-6-(difluoromethoxy)-2-fluorophenyl]-1-oxidopyridin-2-yl}-3-cyclobutylpropanoyl)amino] benzoic acid] | 9.25 | 7.70 | 0.75
O=C(O)c1ccc(NC(=O)C(CC2CC2C(F)(F)F)c2ccc(-c3c(OC(F)F)ccc(Cl)c3F)c[n+]2[O-])cc1 (single isomer, unassigned) [Example 109, 2-(1-((4-carboxyphenyl)amino)-1-oxo-3-(2-(trifluoromethyl)cyclopropyl)propan-2-yl)-5-(3-chloro-6-(difluoromethoxy)-2-fluorophenyl)pyridine 1-oxide] | 8.92 | 7.60 | 0.76
O=C(O)c1ccc(NC(=O)C(CC2CC2)c2ccc(-c3cc(Cl)ccc3OC(F)F)c[n+]2[O-])cc1 (single isomer, unassigned) [Example 7, (R)- or (S)-4-[(2-{5-[5-chloro-2-(difluoromethoxy)phenyl]-1-oxidopyridin-2-yl}-3-cyclopropylpropanoyl)amino] benzoic acid] | 8.12 | 6.58 | 16.38
CC1(C)CC1CC(C(=O)Nc1ccc(C(=O)O)cc1)c1ccc(-c2c(OC(F)F)ccc(Cl)c2F)c[n+]1[O-] (single isomer, unassigned) [Example 112, 2-(1-((4-carboxyphenyl)amino)-3-(2,2-dimethylcyclopropyl)-1-oxopropan-2-yl)-5-(3-chloro-6-(difluoromethoxy)-2-fluorophenyl)pyridine 1-oxide] | 9.40 | 7.67 | 2.21
O=C(O)c1ccc(NC(=O)C(CC2CCCC2)c2ccc(-c3c(OC(F)F)ccc(Cl)c3F)c[n+]2[O-])cc1 (single isomer, unassigned) [Example 19, (R)- or (S)-4-[(2-{5-[3-chloro-6-(difluoromethoxy)-2-fluorophenyl]-1-oxidopyridin-2-yl}-3-cyclopentylpropanoyl)amino] benzoic acid] | 9.35 | 7.70 | 1.3
CC1CC1C[C@@H](C(=O)Nc1ccc(C(=O)O)cc1)c1ccc(-c2c(C(F)F)ccc(Cl)c2F)c[n+]1[O-] (single isomer, unassigned) [Example 63] | 9.72 | 8.54 | 2.13
C[C@]1(O)CC[C@H](CC(C(=O)Nc2ccc(C(=O)O)cc2)c2ccc(-c3c(OC(F)F)ccc(Cl)c3F)c[n+]2[O-])CC1 (single isomer, unassigned) [Example 43, 2-(1-((4-carboxyphenyl)amino)-3-((1r,4r)-4-hydroxy-4-methylcyclohexyl)-1-oxopropan-2-yl)-5-(3-chloro-6-(difluoromethoxy)-2-fluorophenyl)pyridine 1-oxide] | 9.35 | 7.70 | 0.55
